Tests used:
[1] = system: T1, RCAR8/PYL5-ABI2; assay: Yeast ABA signal pathway LUC reporter, RCAR8-ABI2; assay type: cell-based, Arabidopsis thaliana
T1 construct: expressed in transfected cells; host or cells: yeast (LUC reporter strain)
Protocol: (§1) The yeast cultivation and the life luciferase assay were performed as described ([Ruschhaupt et al., 2019]). Briefly, the reporter yeast expressing an ABA-dependent luciferase gene (LUC) was transformed with different combinations of ABA signaling components as indicated. Golden gate cloning ([Binder et al., 2014]) was used to construct pYEAST_LII_5‐6_CEN_URA vector with TDH3 promoter and TDH1 terminator (tTDH1), pYEAST_LII_1‐2_CEN_LEU vector with GK1 promoter and tTDH1, and pYEAST_LII_3‐4_CEN_TRP with the GAL1 promoter (pGAL1) and tTDH1 to express RCARs, PP2Cs, and OST1 (SnRK2.6), respectively ([Ruschhaupt et al., 2019]). The expression of ABF2 in yeast relies on a modified pGREG503 vector, in which pGAL1 ([Jansen et al., 2005]) was replaced by the ADH1 promoter.
(§2) Colonies of freshly transformed cells were inoculated in 0.5 mL supplemented synthetic dextrose (SD) medium and incubated at 30°C in a gyratory shaker (Thermoshake-THO500, Gerhardt, Königswinter, Germany) at 200 rpm for 16-18 h. After overnight growth, the cells were harvested and washed in SD medium followed by inoculation in SD medium containing 2% galactose for induction of SnRK2 kinases under the control of the GAL1 promoter and supplementation with ligands at indicated concentrations, to an OD600 of 0.2 in flat-bottom 96-well plates (CytoOne, Starlab, Hamburg, Germany). Yeast cultures were incubated at 30°C and 200 rpm for 16-18 h before determination of LUC activity and cell density. Light emission of yeasts was detected in a HIDEX plate luminometer (HIDEX, Turku, Finland) after injection of 100 µL freshly prepared luciferin substrate (1 mM D-luciferin, Promega) provided in 100 mM citric acid, pH 3 ([Leskinen et al., 2003]) for 5 s and was corrected for background. The LUC activity was normalized to the cell density (OD600) measured in 96-well flat plates (Sarstedt, Nümbrecht, Germany). LUC activity is given as the ratio of light emission to OD600 in counts per second.

[2] = biological target: T2, RCAR1-ABI2 (Arabidopsis thaliana, UniProt O04719+Q84MC7); assay: In vitro phosphatase assay, ABI2 with RCAR1; assay type: biochemical; conditions: for Statistical significance of RCAR1-mediated inhibition of ABI2 phosphatase activity vs ABA: Fig. 3B
T2 construct: 6xHis (N); made in house; host or cells: Escherichia coli BL21
T2 sequence (Q84MC7 1-187): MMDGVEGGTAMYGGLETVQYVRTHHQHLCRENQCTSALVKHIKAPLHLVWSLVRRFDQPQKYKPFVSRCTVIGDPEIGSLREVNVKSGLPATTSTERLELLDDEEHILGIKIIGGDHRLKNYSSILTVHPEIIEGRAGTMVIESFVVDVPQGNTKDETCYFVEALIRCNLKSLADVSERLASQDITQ
T2 sequence (O04719 1-423): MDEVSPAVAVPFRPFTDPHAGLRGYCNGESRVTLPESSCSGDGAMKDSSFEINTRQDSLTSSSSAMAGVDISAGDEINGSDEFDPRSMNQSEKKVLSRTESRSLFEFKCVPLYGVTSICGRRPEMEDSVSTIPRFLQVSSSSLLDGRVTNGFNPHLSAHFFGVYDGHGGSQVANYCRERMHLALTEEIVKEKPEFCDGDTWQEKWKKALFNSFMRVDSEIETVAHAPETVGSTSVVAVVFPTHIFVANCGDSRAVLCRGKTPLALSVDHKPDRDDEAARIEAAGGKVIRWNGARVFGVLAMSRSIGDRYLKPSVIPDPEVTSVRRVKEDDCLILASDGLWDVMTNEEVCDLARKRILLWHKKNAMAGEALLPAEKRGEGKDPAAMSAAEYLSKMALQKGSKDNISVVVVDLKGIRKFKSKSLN
Protocol: (§3) Expression, purification, and analysis of RCAR and PP2C proteins were performed essentially as described ([Ruschhaupt et al., 2019]). Briefly, the ABA receptors RCAR1, RACR8, and RCAR11 were expressed with an aminoterminal histidine tag using the pSEVA431_LII_6xHIS::RCAR1/RCAR8/RCAR11. ABA coreceptors were expressed as histidine-tagged fusions with the maltose-binding protein using the pSEVA431_LII_6xHIS::MBP::ABI2/HAB1. All constructs were transformed and expressed in Escherichia coli strain BL21 and purified to homogeneity according to supplier’s instruction (GE Healthcare, Chicago, USA). The receptor assay was performed with 100 nM PP2C and a two-fold molar excess of RCAR. Values are means ± SD of three replicates. […] The maximum inhibition was set to 100% in the figures. The phosphatase activity was measured using 4-methylumbelliferyl-phosphate as a substrate ([Meinhard and Grill, 2001]). The increase in fluorescence was recorded over 25 min with excitation and emission wavelengths at 360 and 460 nm, respectively, using a Synergy 2 plate reader (Bio-Tec, Winooski, USA).

[3] = system: T3, RCAR11-ABI2; assay: In vitro phosphatase assay, ABI2 with RCAR11; assay type: biochemical, Arabidopsis thaliana; conditions: 100 nM ABI2, 200 nM RCAR11
T3 construct: 6xHis (N); made in house; host or cells: Escherichia coli BL21
Protocol: as §3

[4] = system: RCAR11-ABI2; assay: Yeast ABA signal pathway LUC reporter, RCAR11-ABI2; assay type: cell-based, Arabidopsis thaliana
Protocol: as §1, §2

[5] = system: wheat plants; assay: Foliar administration and thermal imaging of leaf temperature, wheat; assay type: in vivo, Triticum aestivum; conditions: 100 μM, 24 h after administration
Protocol: (§4) Thermal imaging was carried out as described ([Yang et al., 2016]). An assessment of the efficacy of ABA and CCPs was conducted by using 35-day-old Arabidopsis and 30-day-old wheat plants. Stock solutions (10 mM) of CCPs and ABA dissolved in dimethyl sulfoxide (DMSO) were diluted to the respective ligand concentrations (10, 30, 100 µM) in water containing 0.01% (v/v) Tween 20. Aqueous Tween 20 solutions supplemented with 0.1%, 0.3%, and 1% DMSO served for mock treatments. The solutions were sprayed onto the leaf surface until the run-off of droplets. One day after application (unless otherwise indicated), thermal imaging was conducted using the InfraTec instrument (IR-TCM 384, InfraTec, Dresden, Germany). The leaf temperature of Arabidopsis was determined as the average temperature of all leaves. The leaf temperature of wheat was determined as described ([Yang et al., 2019]).

[6] = biological target: RCAR8-ABI2; assay: In vitro phosphatase assay, ABI2 with RCAR8; assay type: biochemical, Arabidopsis thaliana; conditions: 100 nM ABI2, 200 nM RCAR8
Protocol: as §3

[7] = system: ABI1 with RCAR11/PYR1; parameters: method as in Frackenpohl et al., 2018; conditions: ref Frackenpohl et al., 2018; cited from earlier work
[8] = system: Arabidopsis plants; assay: Foliar administration and thermal imaging of leaf temperature (transpiration), Arabidopsis; assay type: in vivo, Arabidopsis thaliana
Protocol: as §4

[9] = system: RCAR1/PYL9-ABI2; assay: Yeast ABA signal pathway LUC reporter, RCAR1-ABI2; assay type: cell-based, Arabidopsis thaliana
Protocol: as §1, with “The expression of ABF2 in yeast relies on a modified pGREG503 vector, in which pGAL1 ([Jansen et al., 2005]) was replaced by the ADH1 promoter.” left out
Colonies of freshly transformed cells were inoculated in 0.5 mL supplemented synthetic dextrose (SD) medium and incubated at 30°C in a gyratory shaker (Thermoshake-THO500, Gerhardt, Königswinter, Germany) at 200 rpm for 16-18 h. […] Light emission of yeasts was detected in a HIDEX plate luminometer (HIDEX, Turku, Finland) after injection of 100 µL freshly prepared luciferin substrate (1 mM D-luciferin, Promega) provided in 100 mM citric acid, pH 3 ([Leskinen et al., 2003]) for 5 s and was corrected for background. The LUC activity was normalized to the cell density (OD600) measured in 96-well flat plates (Sarstedt, Nümbrecht, Germany). […]

CC(=C/C(=O)O)/C=C/C(O)(C(C)C)C1(C#N)CC1 (stereo not shown) [CCP1, (2Z,4E)-6-(1-cyanocyclopropyl)-3-methyl-6-hydroxy-7-methylocta-2,4-dienoic acid]
Reporter induction relative to ABA ([1]; 1 µM exogenous ligand): approximately half the ABA induction | Higher level required for induction value comparable to 1 µM ABA ([1]; yeast, RCAR8-ABI2): about 10 x | Statistical significance of RCAR1-mediated inhibition of ABI2 phosphatase activity vs ABA ([2]; 0.003 µM): ns (Otherwise, the difference is regarded as insignificant indicated as “ns”) | Statistical significance of RCAR1-mediated inhibition of ABI2 phosphatase activity vs ABA ([2]; 0.01 µM): s (P < 0.05 (one-way ANOVA) is considered as a significant difference and expressed as “s”) | Statistical significance of RCAR1-mediated inhibition of ABI2 phosphatase activity vs ABA ([2]; 0.03 µM): s (P < 0.05 (one-way ANOVA) is considered as a significant difference and expressed as “s”) | Statistical significance of RCAR1-mediated inhibition of ABI2 phosphatase activity vs ABA ([2]; 0.1 µM): s (P < 0.05 (one-way ANOVA) is considered as a significant difference and expressed as “s”) | IC50 relative to ABA (fold higher) ([2]; 100 nM ABI2 and 200 nM RCAR1): approximately 100 fold | Statistical significance of RCAR1-mediated inhibition of ABI2 phosphatase activity vs ABA ([2]; 0.3 µM): s (P < 0.05 (one-way ANOVA) is considered as a significant difference and expressed as “s”) | Statistical significance of RCAR1-mediated inhibition of ABI2 phosphatase activity vs ABA ([2]; 1 µM): s (P < 0.05 (one-way ANOVA) is considered as a significant difference and expressed as “s”) | Statistical significance of RCAR1-mediated inhibition of ABI2 phosphatase activity vs ABA ([2]; 3 µM): s (P < 0.05 (one-way ANOVA) is considered as a significant difference and expressed as “s”) | Statistical significance of RCAR1-mediated inhibition of ABI2 phosphatase activity vs ABA ([2]; 10 µM): s (P < 0.05 (one-way ANOVA) is considered as a significant difference and expressed as “s”) | Statistical significance of RCAR1-mediated inhibition of ABI2 phosphatase activity vs ABA ([2]; 30 µM): s (P < 0.05 (one-way ANOVA) is considered as a significant difference and expressed as “s”) | Statistical significance of RCAR1-mediated inhibition of ABI2 phosphatase activity vs ABA ([2]; 100 µM): s (P < 0.05 (one-way ANOVA) is considered as a significant difference and expressed as “s”) | Inhibition of ABI2 compared to ABA [3]: comparable to ABA | LUC reporter induction compared to mock-treated cells ([4]; 30 µM exogenous ligand, 16 h exposure): approximately eightfold | Activation of the ABA response compared to ABA ([4]; dose-dependent, 0.1-30 µM): comparable activity to ABA | Leaf temperature increase, activity compared to ABA [5]: higher activity than ABA | IC50 relative to ABA (fold higher) [6]: around 10 fold | Activity in in vitro inhibition of ABI1 phosphatase activity [7]: ABA-like activity | Potency in reducing transpiration compared to ABA ([8]; 10 µM): more potent than 100 µM ABA | Higher leaf temperature ([8]; 30 µM, nineteen days after administration): 1.5 °C | Duration of persistent response ([8]; 10 and 30 µM ligand treatment): 10 days | Potency relative to ABA ([8]; 10 and 30 µM ligand vs 100 µM ABA): more than tenfold | Duration of effect relative to ABA ([8]; 10 and 30 µM ligand vs ABA): approximately three times | Efficiency in minimizing transpiration compared to ABA ([8]; foliar application): by an order of magnitude more efficient than ABA | ABA concentration achieving a temperature increase similar to 10 µM of the CCP ([8]; one day after application): about 100 µM | Activity and persistence of minimized transpiration compared to ABA ([8]; single application 100 µM, recorded for 19 days): more active and persistent than ABA | Higher exogenous concentration required for reporter expression comparable to 1 µM ABA [9]: approximately 30 x
